“Also recorded” adds a separate entry of the source. {Cy5.5} = Cy5.5 fluorophore label
What was measured:
[1] = tested on: miR-155; assay: miR-155 expression in FLT3-ITD mutated AML cell line after treatment with AML therapeutic agents; type: cell-based; settings: NOLM-14; IC50 dose, 37° C., 72 hours
Protocol: The FLT3-ITD mutated AML cell line (NOLM-14) was treated with an IC50 dose of cytarabine, azacitidine, decitabine, venetoclax, or gilteritinib, which is used as standard therapeutic agents for AML, at 37° C. for 72 hours, followed by measuring expression levels of miR-155.

[2] = tested on: Hela-141 cells; assay: Cell viability / apoptosis of Hela-141 cells after transfection; type: cell-based
Protocol: (§1) The miRNA triggers were assayed for cytotoxicity and apoptosis induction, using the CCK-8 (Cell Counting Kit-8) (Dojindo, Kumamoto, Japan) according to the manufacturer's instruction. Cells were incubated in 96-well plates (5×10^3 cells/well) at 37° C. for 24 hours under a 5% CO2 atmosphere, followed by transfection. Three days after transfection, the medium was removed. A 10-fold dilution of CCK-8 solution in DMEM was added to the cells which were then incubated at 37° C. for 2 hours. After incubation, absorbance was read at 450 nm on Tecan Infinite M200 pro microplate reader (Mnnedorf, Switzerland).
(§2) The linear miRNA triggers or siRNAs (siLuc and siMcl-1) prepared above were transfected into Hela, Hela-141, and Hela-200c cells which were then measured for cell viability. The results are depicted in FIG. 15.
(§3) The hairpin miRNA triggers prepared above were transfected into Hela and Hela-141 cells which were then assayed for apoptosis. As a control, the siRNA (siMcl-1; Table 14) which can repress the expression of mcl-1 was transfected to Hela and Hela-141 cells and measured for apoptotic activity.

[3] = tested on: Hela-200c cells; assay: Cell viability / apoptosis of Hela-200c cells after transfection; type: cell-based
Protocol: as §1, §2

[4] = tested on: Mcl-1 protein; assay: Western blotting of Mcl-1 protein in Hela-141 cells; type: cell-based; settings: 5 to 120 nM
Protocol: (§4) miRNA triggers were transfected into cells in the same manner as in Reference Example 4. After 72 hours, the cells were collected using a cell scraper and lysed with a RIPA buffer (NaCl 150 mM, EDTA 5 mM, Tris 50 mM, NP-40 1.0%, sodium deoxycholate 0.5%, SDS 0.1%). The cell lysate was sonicated 15 times, each for 20 sec, with a halt for 30 sec every sonication. Following centrifugation at 5,000 g for 5 min, the supernatant was taken and used to extract proteins therefrom. A total of 30-40 μg of protein sample was separated in 10-15% SDS-PAGE gel and transferred onto a PVDF membrane through a semi-dry blotting system. The membrane was blocked for 1 hour in 5% skimmed milk and incubated for 2 hours with a 1,000-fold dilution of a primary antibody in, 1% skimmed milk. […] The membrane incubated with the secondary antibody was washed three times with 1×PBST for 10 min each wash, and then reacted with Clarity Western ECL Substrate (#1705061, Bio-Rad), after which images were obtained and analyzed using ChemiDoc (Bio-rad, Hercules, USA).
A linear miRNA trigger (Mcl-1-141-141; Table 15) that could bind to miR-141 and target mcl-1 was prepared while a linear miRNA trigger (Luc-141-141; Table 9) that could bind to miR-141 and target Luc (luciferase) was used as a control. […] Then, proteins were extracted from the Hela-141 cells and quantitatively analyzed for Mcl-1 protein level by western blotting. […]

[5] = tested on: FLT3 mutated AML cell line MV4-11; assay: Cell viability of MV4-11 after transfection; type: cell-based
Protocol: as §1
A linear miRNA trigger (Mcl-1_155_155 or Bcl-2_155_155) which could bind to miR-155 and target mcl-1 or bcl-2 gene was prepared and transfected into the FLT3 mutated AML cell line MV4-11 which was then measured for cell viability. The results are depicted in FIGS. 31a and 31b. Sequences are listed in Tables 19 and 21 for the linear miRNA triggers prepared above, and in Tables 18 and 19 for the controls Luc-Luc-Luc and luc-155-155, respectively. Every nucleotide of the triggers and the controls were chemically modified with 2′-OMe.

[6] = tested on: cleaved PARP; assay: Western blotting of apoptotic marker in HL-60 after siRNA knockdown; type: cell-based; settings: HL-60 cells
Protocol: as §4, with “USA). […]” for “USA).”

[7] = tested on: MCF-7 breast cancer cells; assay: Cell viability of MCF-7 after transfection; type: cell-based; settings: siRNA 60 nM
Protocol: as §1
An siRNA targeting bcl-2, bcl-xL, or mcl-1 was transfected into MCF-7 breast cancer cells and PANC-1 pancreatic cancer cells. By using qRT-PCR, establishment was made of a condition under which the expression of each target gene is decreased by 80% or more (transfection was performed at a concentration of 60 nM with the aid of Lipofectamine). […] Under the same condition of decreasing the expression of each target gene by 80% or more, the cells transfected with the siRNAs were measured for apoptosis, and the results are depicted in FIGS. 14a and 14b.
Linear miRNA triggers that could bind to miR-141 or let7f and target bcl-xL or mcl-1 were prepared and transfected alone or in combination into the breast cancer cell line MCF-7 which was then measured for cell viability. […]

[8] = tested on: Hela cells; assay: Cell viability / apoptosis of Hela cells after transfection; type: cell-based
Protocol: as §1, §2, §3

[9] = tested on: MOLM-14, MV4-11 and Hela cells; assay: Fluorescence detection after transfection of Cy5.5-labeled miRNA trigger into cells (IVIS 100); type: cell-based; settings: Lipofectamine
Protocol: With the aid of Lipofectamine, the linear miRNA trigger (5′-Cy5.5-miR-155-miR-155-PKR-3′) was transfected into the FLT3-ITD mutant AML cell lines MOLM-14 and MV4-11 and the solid cancer cell line Hela. […] Subsequent animal tests were performed with the trigger.

[10] = In vivo imaging after tail vein injection of Cy5.5-labeled miRNA trigger; set-up: species or system C57BL/6 (B6) mice
Protocol: As a negative control, PBS was injected at a dose of 200 μl into mice.
Days 1, 2, and 4 after miRNA trigger injection, in vivo imaging was performed using IVIS 100 (PerkinElmer).

[11] = FACS detection of Cy5.5 in hematopoietic origin cells of injected mice; type: in vivo, C57BL/6 (B6) mice
From the text: Day 4 after miRNA trigger injection in Example 6-2, mice in the miRNA trigger-administered test group (N=4) and the PBS-administered control (N=4) were sacrificed and specimens (blood cells) were taken from peripheral blood vessels, the spleen, and the bone marrow (femur blood cells). Erythrocytes were removed using an RBC lysis buffer.
The cells in peripheral blood sample were gated through three steps (step 1: debris removal, step 2: selection of single blood cell population, step 3: Cy5.5 detection) to select single blood cells of quality. Through FACS, blood cells retaining Cy5.5 were identified. The results are depicted in FIGS. 20a to 20c.
Spleen-derived hematopoietic cells and bone marrow hematopoietic cells of mice were gated in the foregoing manner and Cy5.5 was detected. The results are depicted in FIGS. 21 and 22. As shown in FIGS. 21a to 21c, 8.7-13.7% of total spleen-derived hematopoietic cells expressed Cy5.5. As in peripheral blood cells, Cy5.5 was detected mainly in lymphocytes and monocytes of the spleen-derived hematopoietic cells.

## Nc1ccn([C@@H]2O[C@H](CO)[C@@H](O)[C@@H]2O)c(=O)n1 [cytarabine]
[1]
  miR-155 expression: did not repress miR-155 express

## Mcl-1_141_141: linear miRNA trigger binding miR-141 and targeting Mcl-1 gene; SEQ ID NO 65 (110 in Table 24) (CCAUCUUUACCUCACAGUGUUACCAUCUUUACCUCACAGUGUUACCGAACUACGUAGC; all 2'-O-methyl, backbone not given here)
[2]
  apoptosis induced: about 40%
[3]
  apoptosis / cell viability (in words): no significant influence on cell viability
[4]
  Mcl-1 protein level compared to control Luc-141-141: significantly decreased in Mcl-1 protein level

## Mcl-1_155_155: linear miRNA trigger binding miR-155 and targeting mcl-1; SEQ ID NO 105 (UUAUGUUUCAGGUUCAGGGGGAUUAUGUUUCAGGUUCAGGGGGACCGAACUACGUAGC; all 2'-O-methyl, backbone not given here)
[5]
  apoptosis (cell viability): induce MV4-11 to undergo apoptosis

## siBcl-2: siRNA targeting bcl-2; SEQ ID NO 62 (AUCAAUCUUCAGCACUCUC; listed as RNA, chemistry not given here)
[6]
  expression of apoptotic marker cleaved PARP: upregulated

## siMcl-1: siRNA targeting mcl-1; SEQ ID NO 64 (AAAUUCGAUACUUCCUUCG; listed as RNA, chemistry not given here) [reference compound]
[7]
  cell viability / apoptosis after siRNA (in words): decreased in cell viability
[8]
  apoptosis / cell viability (in words): induced apoptosis; also recorded: brought about an apoptotic effect
[2]
  apoptosis / cell viability (in words): induced apoptosis; also recorded: brought about an apoptotic effect
[3]
  apoptosis / cell viability (in words): induced apoptosis

B1: Cy5.5_PKR-155_155: linear miRNA trigger binding miR-155 and targeting PKR, labeled with Cy5.5 fluorophore; SEQ ID NO 69 (nucleic acid)
chain: UUAUGUUUCAGGUUCAGGGGGAUUAUGUUUCCAGGUUCAGGGGGAUAUGUGAGGCAGAGAACGA
modifications: all 2'-O-methyl, 5' {Cy5.5}, backbone not given here
[9]
  fluorescence in transfected cells: Fluorescence was detected
[10]
  time Cy5.5 fluorescence detected in the mouse body: ≥ 4 days
  toxicity over the period of in vivo imaging: particular toxicity was detected from none of the mice
[10]; Invivofectamine, 120 nM, days 1, 2 and 4
  organs in which Cy5.5 was detected: detected in main organs including the liver, the spleen, the bone marrow, and the heart, and the hematopoietic organ
[11]; bone marrow, day 4
  rate of bone marrow cells expressing Cy5.5: 1.0-2.0%
[11]; bone marrow, lymphocytes gated through 4 steps, day 4
  Cy5.5 detected in gated lymphocytes: 5.4-9.6%
[11]; day 4 after injection
  Cy5.5 detection in blood cells (FACS profile): detected in blood cells, especially lymphocytes and monocytes
[11]; peripheral blood, day 4
  rate of Cy5.5 detection based on total number of single blood cells: 6.2-15.9%
[11]; spleen, day 4
  spleen-derived hematopoietic cells expressing Cy5.5: 8.7-13.7%

Reference: US20230129651A1, “HAIRPIN STRUCTURE NUCLEIC ACID MOLECULES CAPABLE OF MODULATING TARGET GENE EXPRESSION AND USES THEREOF” (KOREA ADVANCED INSTITUTE OF SCIENCE AND TECHNOLOGY, priority 2021, published 2023)
